Reference: patent US10351915B2 (Berg LLC, priority 2009, dated 2019)

Legend:
PaCa2 = test: Nexin assay for apoptosis (flow cytometry); format: cell-based; conditions: 50 μM and 100 μM Q10, 24 hours
Description: (§1) The 7AAD dye will enter into cells with permeabilized cell membranes; primarily those cells that are in late apoptosis. Annexin-V-PE is a dye that binds to Phosphotidyl serine, which is exposed on the outer surface of the plasma membrane in early apoptotic cells. The Nexin reagent thus can be used to differentiate between different populations of apoptotic cells in a flow cytometer.

PC-3 = test: Nexin assay for apoptosis (flow cytometry); format: cell-based; conditions: 50 μM and 100 μM Q10, 24 hours
Description: as §1

MCF-7 = test: Nexin assay for apoptosis (flow cytometry); format: cell-based; conditions: 50 μM and 100 μM Q10, 24 hours
Description: as §1

SK-MEL28 = test: Nexin assay for apoptosis (flow cytometry); format: cell-based; conditions: 50 μM and 100 μM Q10, 24 hours
Description: as §1

PaCa-2 cells = test: Extracellular acidification rate (ECAR), SeaHorse XF analyzer; format: cell-based; conditions: normoxia, high glucose
Description: (SeaHorse Biosciences Inc, North Billerica, Mass.).
In contrast to normal cells, cancer cells are phenotypically primed to use high glucose for ATP generation (enhanced glycolysis) resulting in higher ECAR (Table 129, ECAR for untreated normoxia 17 mM) at 21 mpH/min. […] The associated decrease in OCR in these cells was likely associated with increased efficiency of the mitochondrial OXPHOS.

Caspase 3 = test: Western blot, Caspase 3 levels; format: cell-based, human; conditions: PACA2, 5g glucose, amount 50
Description: The blots were stripped by incubating for 30 minutes with methanol, followed by two 10 minute washes with TBS-T, then 30 minutes of incubation with Stripping buffer at 50 deg C., and followed by two washes with 100 ml or more of TBS-T for 30′ each. The 2 blots were scanned in laser scanner to check for complete stripping. The blots were activated with methanol for 5 seconds, washed with water for 5 minutes, and TBST for 15 minutes. The blots were blocked for 1 hour with 5% blocking reagent in TBS-T at room temperature and then washed 3 times with TBS-T (1×-15′; 2×5′ each) and probed with the antibody for Caspase 3 in 5% BSA (Santacruz Biotechnology # sc7272) at 1:200 dilutions) overnight at 4 deg C. with shaking. After the overnight incubation with primary antibody for Caspase 3, the membranes were washed 3 times with TBS-T (1×-15′; 2×5′ each) and probed with the secondary antibody (antimouse; 1:10,000 dilution) for 1 h on the orbital tilting shaker at room temperature. […]
The levels of Caspase 3 and actin were determined by probing the blots successively with primary antibodies for Caspase 3 and actin, essentially as described above. […]

[1] = one study with rats; cited from earlier work

## COC1=C(OC)C(=O)C(C/C=C(\C)CC/C=C(\C)CC/C=C(\C)CC/C=C(\C)CC/C=C(\C)CC/C=C(\C)CC/C=C(\C)CC/C=C(\C)CC/C=C(\C)CCC=C(C)C)=C(C)C1=O [Q10, Coenzyme Q10]
PaCa2
  increase in both early and late apoptotic cells: 5-10 % of gated cells
PC-3
  early and late apoptotic population: an increase in both early and late apoptotic population
MCF-7
  apoptotic population: an increase only in early apoptotic population
SK-MEL28
  apoptotic population: an increase only in early apoptotic population
PaCa-2 cells
  ECAR rates: significant decrease in ECAR rates
Caspase 3
  Caspase 3 Normalized Volume (48 h): 701
[1]
  orally-administered CoQ10 absorbed: 2-3%
